Measurements published in patent publication US8134000B2, “Imidazolyl pyrimidine inhibitor compounds” (Gilead Sciences, Inc., priority 2008, dated 2012).

What was measured:
CDK2 = CDK2 (Homo sapiens, UniProt P24941); assay: CDK2 inhibition (IC50); type: biochemical
HDAC 1 = HDAC 1 (Homo sapiens, UniProt Q13547); assay: HDAC 1 inhibition assay with about 3 hours preincubation of enzyme and compound; type: biochemical; conditions: read-out: HDAC 1 inhibitory activity (IC50 [μM]) (3-hour preincubation)
Chain of HDAC 1 (Q13547 whole entry, species assumed): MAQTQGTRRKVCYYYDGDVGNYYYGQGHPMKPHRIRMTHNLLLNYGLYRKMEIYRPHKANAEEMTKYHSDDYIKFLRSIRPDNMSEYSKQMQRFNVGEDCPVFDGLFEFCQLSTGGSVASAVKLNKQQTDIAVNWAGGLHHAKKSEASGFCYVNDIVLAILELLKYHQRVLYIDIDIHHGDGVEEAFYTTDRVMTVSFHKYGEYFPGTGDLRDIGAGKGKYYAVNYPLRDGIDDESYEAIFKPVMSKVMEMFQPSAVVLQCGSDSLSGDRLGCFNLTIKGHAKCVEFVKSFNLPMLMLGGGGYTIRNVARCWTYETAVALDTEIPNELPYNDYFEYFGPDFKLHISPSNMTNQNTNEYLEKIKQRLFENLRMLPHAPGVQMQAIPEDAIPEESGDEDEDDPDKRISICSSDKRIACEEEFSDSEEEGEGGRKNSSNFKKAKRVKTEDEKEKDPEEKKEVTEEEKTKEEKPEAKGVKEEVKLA
Method: The second assay is similar to the first assay described above, except that preincubation is carried out for about 3 hours after the enzyme is introduced. The test compound was suspended in, and titrated in DMSO. It was then spotted into a 384-well test plate. The enzyme, HDAC 1, was diluted in the same assay buffer as used in the previous assay and added to the pre-spotted compound. The enzyme/compound mix was incubated at room temperature for about 3 hours. The peptide substrate containing a fluorophore/quencher pair was diluted in the assay buffer and added to the compound/enzyme mix initiating the reaction. The reaction incubated at room temperature for 45 minutes. A concentrated developer solution was diluted in the assay buffer, and added to the reaction. The reaction was incubated at room temperature for about 15 minutes and relative fluorescence was read on an instrument reader.

In the case of `Cc1ncc(-c2ccnc(Nc3ccc(C(=O)Nc4ccccc4N)cc3)n2)n1C(C)C` [Example 1, N-(2-amino-phenyl)-4-[4-(1-isopropyl-2-methylimidazol-5-yl)-pyrimidin-2-ylamino]-benzamide], the IC50 (CDK2) is reported as 0.03 µM and the IC50 (HDAC 1) is reported as 0.273 µM.

Work on `Cc1ncc(-c2ccnc(Nc3ccc(C(=O)NO)cc3)n2)n1C(C)C` [Example 2, N-hydroxy-4-[4-(1-isopropyl-2-methylimidazol-5-yl)-pyrimidin-2-ylamino]-benzamide] yielded an IC50 (CDK2) of 0.01 µM and an IC50 (HDAC 1) of 0.241 µM.

In the case of `Cc1ncc(-c2ccnc(Nc3ccc(C(=O)Nc4cc(-c5cccs5)ccc4N)cc3)n2)n1C(C)C` [Example 3, N-(2-amino-5-thiophen-2-yl-phenyl)-4-[4-(1-isopropyl-2-methylimidazol-5-yl)-pyrimidin-2-ylamino]-benzamide], the IC50 (CDK2) is reported as 0.04 µM and the IC50 (HDAC 1) is reported as 0.019 µM.

In the case of `Cc1ncc(-c2ccnc(Nc3ccc(C(=O)Nc4cc(F)ccc4N)cc3)n2)n1C(C)C` [Example 4, N-(2-amino-5-fluoro-phenyl)-4-[4-(1-isopropyl-2-methylimidazol-5-yl)-pyrimidin-2-ylamino]-benzamide], the IC50 (CDK2) is reported as 0.02 µM and the IC50 (HDAC 1) is reported as 0.809 µM.

With `Cc1ncc(-c2cnnc(Nc3ccc(C(=O)Nc4ccccc4N)cc3)n2)n1C(C)C` [Example 5, N-(2-aminophenyl)-4-(5-(1-isopropyl-2-methylimidazol-5-yl)-1,2,4-triazin-3-ylamino)benzamide] the IC50 (CDK2) was > 40 µM and the IC50 (HDAC 1) was 0.423 µM.

`Cc1ncc(-c2ccnc(Nc3ccc(C(=O)Nc4cc(C(F)(F)F)ccc4N)cc3)n2)n1C(C)C` [Example 6, N-(2-amino-5-(trifluoromethyl)phenyl)-4-(4-(1-isopropyl-2-methylimidazol-5-yl)pyrimidin-2-ylamino)benzamide] was tested, and the IC50 (CDK2) was 0.01 µM and the IC50 (HDAC 1) was > 10 µM.

`Cc1ncc(-c2cnnc(Nc3ccc(C(=O)Nc4cc(-c5cccs5)ccc4N)cc3)n2)n1C(C)C` [Example 7, N-(2-amino-5-(thiophen-2-yl)phenyl)-4-(5-(1-isopropyl-2-methylimidazol-5-yl)-1,2,4-triazin-3-ylamino)benzamide] was tested, and the IC50 (CDK2) was > 40 µM and the IC50 (HDAC 1) was 0.03 µM.

Work on `Cc1ncc(-c2ccnc(Nc3ccc(C(=O)NO)s3)n2)n1C(C)C` [Example 8, N-hydroxy-5-(4-(1-isopropyl-2-methylimidazol-5-yl)pyrimidin-2-ylamino)thiophene-2-carboxamide] yielded an IC50 (CDK2) of 0.002 µM and an IC50 (HDAC 1) of 0.656 µM.

In the case of `Cc1ncc(-c2ccnc(Nc3ccc(C(=O)Nc4cc(-c5ccc(F)cc5)ccc4N)cc3)n2)n1C(C)C` [Example 9, N-(4-amino-4′-fluorobiphenyl-3-yl)-4-(4-(1-isopropyl-2-methylimidazol-5-yl)pyrimidin-2-ylamino)benzamide], the IC50 (CDK2) is reported as 0.027 µM and the IC50 (HDAC 1) is reported as 0.04 µM.

In the case of `Cc1ncc(-c2ccnc(Nc3ccc(C(=O)Nc4cc(-c5cccs5)ccc4N)s3)n2)n1C(C)C` [Example 10, N-(2-amino-5-(thiophen-2-yl)phenyl)-5-(4-(1-isopropyl-2-methylimidazol-5-yl)pyrimidin-2-ylamino)thiophene-2-carboxamide], the IC50 (CDK2) is reported as 0.026 µM and the IC50 (HDAC 1) is reported as 0.034 µM.

`Cc1ncc(-c2ccnc(Nc3ccc(C(=O)Nc4ccccc4N)s3)n2)n1C(C)C` [Example 11, N-(2-aminophenyl)-5-(4-(1-isopropyl-2-methylimidazol-5-yl)pyrimidin-2-ylamino)thiophene-2-carboxamide] showed an IC50 (CDK2) of 0.012 µM and an IC50 (HDAC 1) of 4.37 µM.

For `Cc1ncc(-c2ncnc(Nc3ccc(C(=O)Nc4ccccc4N)cc3)n2)n1C(C)C` [Example 12, N-(2-aminophenyl)-4-(4-(1-isopropyl-2-methylimidazol-5-yl)-1,3,5-triazin-2ylamino)benzamide], the IC50 (CDK2) was 0.34 µM and the IC50 (HDAC 1) was 0.153 µM.

`Cc1ncc(-c2ccnc(Nc3ccc(C(=O)Nc4cc(-c5ccc(F)cc5)ccc4N)s3)n2)n1C(C)C` [Example 13, N-(4-amino-4′-fluorobiphenyl-3-yl)-5-(4-(1-isopropyl-2-methylimidazol-5-yl)pyrimidin-2-ylamino)thiophene-2-carboxamide] showed an IC50 (CDK2) of 0.065 µM and an IC50 (HDAC 1) of 0.054 µM.

`Cc1cc(C(=O)Nc2cc(-c3ccc(F)cc3)ccc2N)sc1Nc1nccc(-c2cnc(C)n2C(C)C)n1` [Example 14, N-(4-amino-4′-fluorobiphenyl-3-yl)-5-(4-(1-isopropyl-2-methylimidazol-5-yl)pyrimidin-2-ylamino)-4-methylthiophene-2-carboxamide] was tested, and the IC50 (CDK2) was 0.99 µM and the IC50 (HDAC 1) was 0.028 µM.

With `Cc1ncc(-c2ccnc(Nc3ncc(C(=O)Nc4cc(-c5ccc(F)cc5)ccc4N)s3)n2)n1C(C)C` [Example 15, N-(4-amino-4′-fluorobiphenyl-3-yl)-2-(4-(1-isopropyl-2-methylimidazol-5-yl)pyrimidin-2-ylamino)thiazole-5-carboxamide] the IC50 (CDK2) was 1.04 µM and the IC50 (HDAC 1) was 0.049 µM.

Molecule `Cc1ncc(-c2ccnc(Nc3ncc(C(=O)Nc4cc(-c5cccs5)ccc4N)s3)n2)n1C(C)C` [Example 16, N-(2-amino-5-(thiophen-2-yl)phenyl)-2-(4-(1-isopropyl-2-methylimidazol-5-yl)pyrimidin-2-ylamino)thiazole-5-carboxamide] has an IC50 (CDK2) of 2.15 µM and an IC50 (HDAC 1) of 0.032 µM.

Work on `Cc1ncc(-c2nc(Nc3ccc(C(=O)Nc4cc(-c5cccs5)ccc4N)s3)ncc2F)n1C(C)C` [Example 17, N-(2-amino-5-(thiophen-2-yl)phenyl)-5-(5-fluoro-4-(1-isopropyl-2-methylimidazol-5-yl)pyrimidin-2-ylamino)thiophene-2-carboxamide] yielded an IC50 (CDK2) of 0.025 µM and an IC50 (HDAC 1) of 0.037 µM.

`Cc1ncc(-c2ccnc(Nc3ncc(C(=O)Nc4ccccc4N)s3)n2)n1C(C)C` [Example 18, N-(2-aminophenyl)-2-(4-(1-isopropyl-2-methylimidazol-5-yl)pyrimidin-2-ylamino)thiazole-5-carboxamide] showed an IC50 (CDK2) of 2.1 µM and an IC50 (HDAC 1) of 0.41 µM.
